This test deals with Ras-related C3 botulinum toxin substrate 1 (Homo sapiens) (UniProt P63000). The test is described as follows: activated mutant Rac1 GTP binding inhibitors, SAR follow-up, biochemical, oxadiazole analogs, multiplex bead flow cytometry (AID 2051). As to conditions: Bead-based flow cytometry, Bodipy-FL-GTP binding to GST-Rac1; for Ki: measured here: Ki calculated from EC50.

The structures appear in SMILES notation. Calls of active or inactive are those of the source.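 The calls were made as follows: active = EC50 of 30 microM or lower and a span of response of at least a set limit; inactive = the rest.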

What is called EC50 is the concentration giving half of the maximal effect. As a reminder, the Ki is a dissociation constant, usually derived from enzyme kinetics or from competition with a known ligand.

Take `COc1ccc(-c2noc(CCC(=O)N3CCN(c4cc(C)ccc4C)CC3)n2)cc1`: the EC50 is 5900 nM and the Ki is 540 nM.

Consider `COc1ccc(-c2noc(CCC(=O)N3CCN(c4ccc(C(F)(F)F)cc4)CC3)n2)cc1`, for which the EC50 result was “inactive”.

Consider `COc1ccc(-c2noc(CCC(=O)N3CCN(c4ccccc4F)CC3)n2)cc1`, for which the EC50 was 2510 nM and the Ki is 230 nM.

For `Cc1ccc(C)c(N2CCN(C(=O)CCc3nc(-c4cccc(F)c4)no3)CC2)c1`, the EC50 is 2550 nM and the Ki was 230 nM.

Turning to `COc1ccc(-c2noc(CCC(=O)N3CCN(c4ccccc4Br)CC3)n2)cc1`, the EC50 was 2240 nM and the Ki was 200 nM.

For `Cc1ccc(C)c(N2CCN(C(=O)CCc3nc(-c4ccccc4)no3)CC2)c1`, the EC50 is 2790 nM and the Ki was 250 nM.

`COc1ccc(-c2noc(CCCC(=O)N3CCN(c4cc(C)ccc4C)CC3)n2)cc1`: the EC50 was 8220 nM and the Ki is 750 nM.

As for `COc1ccc(-c2noc(CCC(=O)N3CCN(c4cccc(C(F)(F)F)c4)CC3)n2)cc1`, the EC50 entry was “inactive” and the Ki was 830 nM.

Turning to `COc1ccc(-c2noc(CCC(=O)N3CCN(c4ccc(C)cc4)CC3)n2)cc1`, the EC50 result was “inactive” and the Ki was 140 nM.

Take `Cc1ccc(C)c(N2CCN(C(=O)CCc3nc(-c4ccc(Cl)cc4)no3)CC2)c1`: the EC50 is 2250 nM and the Ki is 200 nM.

With `Cc1ccc(C)c(N2CCN(C(=O)CCc3nc(-c4ccc(F)cc4)no3)CC2)c1`, the EC50 is 1370 nM and the Ki is 120 nM.

With `COc1ccc(-c2noc(CCC(=O)N3CCN(c4cccc(OC)c4)CC3)n2)cc1`, the EC50 entry is “inactive” and the Ki is 890 nM.

With `COc1ccc(-c2noc(CCC(=O)N3CCN(c4cccc(Cl)c4)CC3)n2)cc1`, the EC50 was 7340 nM and the Ki was 670 nM.

Take `Cc1ccc(C)c(N2CCN(C(=O)CCc3nc(-c4ccccc4Cl)no3)CC2)c1`: the EC50 was 1370 nM and the Ki was 120 nM.

In the case of `COc1ccc(-c2ccc(CCC(=O)N3CCN(c4cc(C)ccc4C)CC3)[nH]2)cc1`, the EC50 result is “inactive” and the Ki is 480 nM.

On to `Cc1ccc(C)c(N2CCN(C(=O)CCc3nc(-c4ccc(Br)cc4)no3)CC2)c1`, for which the EC50 is 3020 nM and the inhibitory constant (Ki) is 270 nM.

For the compound `Cc1ccc(C)c(N2CCN(C(=O)CCc3nc(-c4cccc(Cl)c4)no3)CC2)c1`, the EC50 is 5120 nM and the Ki was 470 nM.

With `COc1ccc(-c2noc(CCC(=O)N3CCN(c4ccc(Br)cc4)CC3)n2)cc1`, the EC50 result was “inactive” and the Ki was 300 nM.

With `COc1ccc(-c2noc(CC(=O)N3CCN(c4cc(C)ccc4C)CC3)n2)cc1`, the EC50 entry was “inactive” and the Ki is 1320 nM.

As to `COc1ccc(-c2noc(CCC(=O)N3CCN(c4ccccc4C(F)(F)F)CC3)n2)cc1`, the EC50 is 2010 nM and the Ki is 180 nM.

Consider `COc1ccc(-c2cc(CCC(=O)N3CCN(c4cc(C)ccc4C)CC3)on2)cc1`, for which the EC50 entry is “inactive” and the Ki was 190 nM.

On to `Cc1ccc(C)c(N2CCN(C(=O)CCc3nc(-c4ccccc4F)no3)CC2)c1`, for which the EC50 is 2250 nM and the Ki was 200 nM.

Turning to `Cc1ccc(C)c(N2CCN(C(=O)CCc3nc(-c4ccccc4C)no3)CC2)c1`, the EC50 was 2010 nM and the Ki was 180 nM.

As to `Cc1ccc(C)c(N2CCN(C(=O)CCc3nc(-c4cccc(C(F)(F)F)c4)no3)CC2)c1`, the EC50 was 3380 nM and the Ki is 310 nM.

Take `COc1cccc(-c2noc(CCC(=O)N3CCN(c4cc(C)ccc4C)CC3)n2)c1`: the EC50 was 5780 nM and the inhibition constant Ki was 530 nM.

With `COc1ccc(-c2noc(CCC(=O)N3CCN(c4ccccc4Cl)CC3)n2)cc1`, the EC50 is 4940 nM and the Ki is 450 nM.

Turning to `COc1ccc(-c2noc(CCC(=O)N3CCN(c4ccccc4)CC3)n2)cc1`, the EC50 result was “inactive” and the Ki is 160 nM.

With `COc1ccc(-c2noc(CCC(=O)N3CCN(c4ccccc4OC)CC3)n2)cc1`, the half-maximal effective concentration (EC50) was 3800 nM and the Ki is 350 nM.

`COc1ccc(-c2noc(CCC(=O)N3CCN(c4cccc(C)c4)CC3)n2)cc1`: the EC50 entry is “inactive”.

For the compound `COc1ccc(-c2noc(CCCCC(=O)N3CCN(c4cc(C)ccc4C)CC3)n2)cc1`, the EC50 result was “inactive” and the Ki is 1060 nM.

Take `Cc1ccc(C)c(N2CCN(C(=O)CCc3nc(-c4ccccc4C(F)(F)F)no3)CC2)c1`: the EC50 was 2700 nM and the Ki was 250 nM.

On to `Cc1ccc(C)c(N2CCN(C(=O)CCc3nc(-c4ccc(C(F)(F)F)cc4)no3)CC2)c1`, for which the EC50 is 1950 nM and the Ki is 180 nM.

As for `COc1ccc(-c2coc(CCC(=O)N3CCN(c4cc(C)ccc4C)CC3)n2)cc1`, the EC50 is 2840 nM and the Ki is 260 nM.

For `Cc1ccc(C)c(N2CCN(C(=O)CCc3nc(-c4ccccc4Br)no3)CC2)c1`, the EC50 was 2150 nM and the Ki was 200 nM.

For the compound `Cc1ccc(-c2noc(CCC(=O)N3CCN(c4cc(C)ccc4C)CC3)n2)cc1`, the EC50 was 3320 nM and the Ki was 300 nM.

As to `COc1ccc(-c2noc(CCC(=O)N3CCN(c4ccc(F)cc4)CC3)n2)cc1`, the EC50 result was “inactive” and the Ki is 80 nM.

Turning to `COc1ccc(-c2cccc(CCC(=O)N3CCN(c4cc(C)ccc4C)CC3)c2)cc1`, the EC50 entry is “inactive” and the Ki is 910 nM.

`COc1ccc(-c2noc(CCC(=O)N3CCN(c4ccccc4C)CC3)n2)cc1`: the EC50 is 1480 nM and the Ki was 130 nM.

In the case of `COc1ccccc1-c1noc(CCC(=O)N2CCN(c3cc(C)ccc3C)CC2)n1`, the EC50 entry was “inactive” and the Ki was 480 nM.

`COc1ccc(-c2ccc(CCC(=O)N3CCN(c4cc(C)ccc4C)CC3)s2)cc1`: the EC50 entry is “inactive”.

As for `Cc1ccc(C)c(N2CCN(C(=O)CCc3nc(-c4cccc(Br)c4)no3)CC2)c1`, the concentration for a half-maximal effect (EC50) was 2140 nM and the Ki was 190 nM.

On to `COc1ccc(-c2noc(CCC(=O)N3CCN(c4ccc(Cl)cc4)CC3)n2)cc1`, for which the EC50 entry is “inactive”.

Take `COc1ccc(-c2noc(CCC(=O)N3CCC(c4cc(C)ccc4C)CC3)n2)cc1`: the EC50 result is “inactive” and the Ki is 230 nM.

As for `Cc1ccc(C)c(N2CCN(C(=O)CCc3nc(-c4ccc(N(C)C)cc4)no3)CC2)c1`, the EC50 was 4100 nM and the Ki is 370 nM.

Consider `COc1ccc(-c2noc(CCC(=O)N3CCN(c4cccc(Br)c4)CC3)n2)cc1`, for which the EC50 is 20600 nM and the inhibition constant (Ki) is 1870 nM.

Consider `COc1ccc(-c2noc(CCC(=O)N3CCN(c4ccc(OC)cc4)CC3)n2)cc1`, for which the EC50 entry is “inactive” and the Ki is 60 nM.

Take `COc1ccc(-c2noc(CCC(=O)N3CCN(c4cccc(C)c4C)CC3)n2)cc1`: the EC50 is 1540 nM and the Ki was 140 nM.

For `COc1ccc(-c2ccc(CCC(=O)N3CCN(c4cc(C)ccc4C)CC3)o2)cc1`, the EC50 result is “inactive”.

For the compound `Cc1cccc(-c2noc(CCC(=O)N3CCN(c4cc(C)ccc4C)CC3)n2)c1`, the 50% effective concentration (EC50) is 1920 nM and the Ki was 170 nM.

Regarding `COc1ccc(-c2cc(CCC(=O)N3CCN(c4cc(C)ccc4C)CC3)[nH]n2)cc1`, the EC50 result was “inactive”.

Take `COc1ccc(-c2noc(CCC(=O)N3CCN(c4cccc(F)c4)CC3)n2)cc1`: the EC50 result is “inactive”.

The record behind these values is PubChem BioAssay AID2051 (NMMLSC, 2009).
